Data: patent US8618074B2, “GPCR enhanced neuroprotection to treat brain injury” (Board of Regents of the University of Texas System, priority 2007, dated 2013)

Key:
astrocytes [1] = experiment: Astrocyte survival under t-buOOH oxidative stress in the absence of neurons; type: cell-based, mouse
Procedure: To determine whether P2Y-R enhanced mitochondrial metabolism in astrocytes affected neuronal resistance to oxidative stress, we prepared co-cultures of neurons and astrocytes using corning transwell-clear permeable supports, which physically separates the two cell-types by ˜1 mm (# 07-200-170, Fisher scientific). Primary cultures of astrocytes were directly prepared in transwell supports until they were ˜70% confluent. Mouse cortical neurons were then cultured onto glass bottom mattek plates and maintained in B-27/Neurobasal Medium to control glia contamination to less than 0.5% (Invitrogen). After four days, co-cultures were treated with t-buOOH (100 μM) for 4 hours with and without pre-stimulation of ATP (2 μM, 10 minutes). Cells were then stained with the DNA intercalating dye Hoechst 33342 (10 μg/ml, Molecular Probes, #H-3570) and calcein AM (2 μM, Molecular Probes, #C3100). […] We then tested the neuroprotective affects of isoform specific purinergic ligands 2-MeSADP(P2Y1-R) and UTP(P2Y2-R). FIG. 6A depicts histogram plots of the percentage of neurons alive when cocultured with young or old astrocytes. FIG. 6B depicts histogram plots of the percentage of neurons alive pretreated with either 2-MeSADP (2 μM) or UTP (50 μM) for 10 min. A ten-minute pre-treatment of astrocytes with either 2-MeSADP (2 μM), or UTP (50 μM) was equally protective against oxidative stress induced cell death. The % neurons alive after 4.5 hours of t-buOOH treatment was 51±4% (n=1664 neurons, pooled from 4 experiments) for untreated controls, 70±2% (n=2541 neurons, pooled from 4 experiments) for 2-MeSADP and 71±3% (n=1189 neurons, pooled from 4 experiments) for UTP treated co-cultures. […] The % astrocytes alive after 4.5 hours of t-buOOH treatment, in the absence of neurons, was 60±4% (n=294 cells) for control, 77±4% (n=294) for 2-MeSADP and 79±3% (n=333) for UTP treated astrocytes.
It should be noted that stimulation of neuroprotective response in astrocytes is not restricted to signaling through P2Y receptors. For example we have shown that administration of the membrane permeable IP3 analog, IP3BM, is capable of protecting astrocytes from oxidative damage. Thus, it appears possible that any stimulus capable of evoking IP3-mediated calcium release in astrocytes is equally suitable for application in the present treatment methods. To test this possibility, astrocyte cultures subjected to oxidative stress were treated with either 2-MeSADP, or the metabotropic glutamate receptor agonist (1 S, 3 R)-1-aminocyclopentane-1,3-dicarboxylic acid (ACPD), or were left untreated.
To directly examine the role of IP3 gated Ca^2+ release in P2Y-R enhanced astrocyte protection, we used a membrane permeant butyryloxymethyl ester of IP3 (IP3-BM). Cultures of astrocytes were exposed to IP3-BM and Ca^2+ levels were assessed using 2-photon imaging of Fura 2. Ca^2+ increases in response to IP3-BM application were easily detected, but they occurred over a much slower time course than those initiated by ATP treatment. This was not unexpected because of the slow process of IP3-BM movement across the lipid bilayer as well as the time needed to cleave the ester and accumulate IP3 in the cell. Because of the slower time course, we pretreated astrocytes for 20 minutes prior to exposing them to the oxidant stress t-BuOOH. […] The protective effect of IP3-BM treatment was blocked by the IP3R inhibitor, XeC. […]

Mouse cortical neurons = experiment: Neuronal survival in transwell co-culture with astrocytes under t-buOOH oxidative stress (Hoechst/calcein); type: cell-based; details: co-cultures; 10 min pre-treatment 2-MeSADP 2 μM or UTP 50 μM; 4.5 hours of t-buOOH
Procedure: Primary cultures of astrocytes were prepared as previously published (Lin et al., 2005). C57BL/6 male mice were purchased from the National Institute of Aging and maintained in standard accredited housing conditions at the University of Texas Health Science Center Animal Facility. Animal protocols were approved by our Institutional Animal Care Use Committee. Astrocytes were cultured in DMEM F-12 media (Invitrogen, # 11039-021) supplemented with 2 mM glutamine, nonessential amino acids, 10% fetal calf serum, 100 U/ml penicillin/streptomycin (Cambrex BioScience Walkersville, #17-602E) and 1% fungizone (Invitrogen, #15290-018) at 37° C. in an atmosphere containing 5% CO2. The culture medium was changed every 3-5 days. Confluent cells were gently removed by a trypsin EDTA solution and re-plated on 35 mm glass bottom chambers (Bioptechs #04200415C) prior to imaging experiments 3-4 days later. Cells were maintained in plastic culture flasks until the final re-seeding of cells onto a glass bottom chamber and were passed up to 3 times for astrocyte only experiments. For co-culture experiments with neurons, primary astrocytes were plated directly onto corning transwell-clear permeable supports, which physically separates the two cell-types by ˜1 mm (# 07-200-170, Fisher scientific). Astrocytes were cultured in transwells until they were ˜70% confluent. Mouse cortical neurons (Cambrex Bio Science Walkersville Inc., # M-CX-300) were then cultured onto 6 well mat-tek glass bottom plates and maintained in Neurobasal Medium (Invitrogen, # 21103-049), 2 mM L-Glutamine (Cambrex BioScience Walkersville, #17-605E), 100 U/ml penicillin/streptomycin (Cambrex BioScience Walkersville, #17-602E) and B-27 with (Invitrogen, #17504-044) and without antioxidants (Invitrogen, #10889-038), which controls glia contamination to less than 0.5%. The transwell supports with cultured astrocytes were placed in the neuron seeded glass bottom chambers for four days before imaging and both cell types were then maintained in neuronal media. For neuron only experiments, the astrocytes on the transwell supports were removed prior to treatments and imaging.
Sensitivity of neurons to oxidative stress was assessed by treating cultures with 100 μM tert-butyl hydrogen peroxide (t-BuOOH, Sigma, #B-2633) for 3 hours. Neurons were then stained with Hoechst 33342 (10 μg/ml, Molecular Probes, #H-3570) to label all cell nuclei and calcein AM (2 μM, #C3100, Molecular Probes, #C3100). […] Calcein fluorescence is only observed in live cells that have maintained their plasma membrane integrity. Images were acquired on an inverted Nikon TE300 microscope with a Hamamatsu ORCAER camera and Open lab software (Improvision).
To determine whether P2Y-R enhanced mitochondrial metabolism in astrocytes affected neuronal resistance to oxidative stress, we prepared co-cultures of neurons and astrocytes using corning transwell-clear permeable supports, which physically separates the two cell-types by ˜1 mm (# 07-200-170, Fisher scientific). Primary cultures of astrocytes were directly prepared in transwell supports until they were ˜70% confluent. Mouse cortical neurons were then cultured onto glass bottom mattek plates and maintained in B-27/Neurobasal Medium to control glia contamination to less than 0.5% (Invitrogen). After four days, co-cultures were treated with t-buOOH (100 μM) for 4 hours with and without pre-stimulation of ATP (2 μM, 10 minutes). Cells were then stained with the DNA intercalating dye Hoechst 33342 (10 μg/ml, Molecular Probes, #H-3570) and calcein AM (2 μM, Molecular Probes, #C3100). […] We then tested the neuroprotective affects of isoform specific purinergic ligands 2-MeSADP(P2Y1-R) and UTP(P2Y2-R). FIG. 6A depicts histogram plots of the percentage of neurons alive when cocultured with young or old astrocytes. FIG. 6B depicts histogram plots of the percentage of neurons alive pretreated with either 2-MeSADP (2 μM) or UTP (50 μM) for 10 min. […]

astrocytes [2] = experiment: Intracellular ATP determination (luciferin-luciferase); type: cell-based, mouse
Procedure: Intracellular ATP was measured using a luciferin-luciferase kit (Invitrogen, #22066). Plated astrocytes were trypsinized and washed 3× with PBS buffer (GIBCO #14190). An aliquot of cells was set aside to measure the cell density with a hemocytometer. The cells were then suspended in a lysate buffer (4 mM EDTA and 100 mM Tris, pH 7.75) and immediately heated to 100° C. for 5 minutes to minimize enzymatic changes in ATP levels. The supernatant was collected after a 10,000 g centrifugation for 1 minute and used with the luciferin/luciferase kit according to the manufacturer's instructions. Luminescence was measured with a Synergy™ HT Multi-Detection Microplate Reader (BioTek). ATP levels were normalized by cell density.
Our next approach to investigate the role of mitochondrial metabolism was to directly measure ATP levels in cultures astrocytes using a luciferin-luciferase assay (Invitrogen). Astrocytes were cultured as described above, trypsinized and washed with buffer. The cells were then suspended in a lysate buffer and immediately heated to 100° C. (5 min) to minimize enzymatic changes in ATP levels. After centrifugation, the ATP dependent luminescence of supernatant was measured with a microplate reader (Biotek). FIG. 5C depicts histograms of the direct measurement of intracellular ATP levels relative to untreated cells (control), P2Y-R stimulated (MeADP), then the same measurements in the presence of oligomycin (oligo) or ruthenium 360 (Ru360). We estimated that the resting intracellular ATP concentration in cultured astrocytes was 0.31±0.14 μM ATP/10^4 cells (n=3). […] Finally, we tested whether ruthenium 360 (Ru360; Calbiochem), a polycation that inhibits the electrogenic mitochondrial Ca^2+ uniporter, affected mitochondrial ATP production.

For `N[C@@]1(C(=O)O)CC[C@@H](C(=O)O)C1` [ACPD, (1 S, 3 R)-1-aminocyclopentane-1,3-dicarboxylic acid], which “% of astrocytes alive” value (astrocytes [1]; 10 minutes pretreatment, 4 hours of t-BuOOH, mean+SD) is on record?
The value was 66+9%.

What about the “astrocyte resistance to oxidative stress” value (astrocytes [1]; astrocyte cultures subjected to oxidative stress, versus untreated) of the same compound?
Its value is “enhanced”.

Which “% astrocytes alive” value (astrocytes [1]; absence of neurons, 4.5 hours of t-buOOH, 2-MeSADP or UTP) does the source give for `O=c1ccn([C@@H]2O[C@H](COP(=O)(O)OP(=O)(O)OP(=O)(O)O)[C@@H](O)[C@H]2O)c(=O)[nH]1` [UTP, uridine 5′-triphosphate] here?
The value was 79±3%.

What about the “% neurons alive” value (Mouse cortical neurons) of the same compound?
Its value is 71±3%.

How did the “effect on ability of 2-MeSADP to increase ATP levels” value (astrocytes [2]; Ru360 1 μM 30 min + 2-MeSADP) turn out when ruthenium 360 [Ru360] was run?
The value was “completely blocked”.

And the “basal ATP levels, % of control values” (astrocytes [2]; Ru360 1 μM, 30 min)?
Its value is 60.5%±10.5 % of control.
